# Reference: article PMC9835592, “Allosteric inhibition of Staphylococcus aureus MenD by 1,4-dihydroxy naphthoic acid: a feedback inhibition mechanism of the menaquinone biosynthesis pathway” (Philosophical Transactions of the Royal Society B: …, 2023)
# Read-outs that look alike come from different tables or passages of the source.
# Key:
# [1] = molecular target: WT Sau-MenDIS1 (Staphylococcus aureus, UniProt Q2FZL7); test: UV spectroscopy assay of isochorismate consumption (SEPHCHC synthase activity), DHNA inhibition; format: biochemical
# [2] = molecular target: Sau-MenDIS1 Arg98Ala mutant (Staphylococcus aureus, UniProt Q2FZL7, R98A); test: UV spectroscopy assay of isochorismate consumption, DHNA inhibition
# [3] = test system: Sau; set-up: method as in PMID 35091344; settings: addition to culture medium; cited from earlier work
# [4] = molecular target: Sau-MenDIS1 Lys283Ala mutant (Staphylococcus aureus, UniProt Q5HH40, K283A); test: UV spectroscopy assay of isochorismate consumption, DHNA inhibition
# [5] = test system: Sau-MenDIS1 Lys283Ala mutant (Staphylococcus aureus, K283A); test: as above; settings: four-parameter Hill fit; complete CI not determinable, best-fit value to be interpreted with caution
# [6] = molecular target: T1, Sau-MenDATCC 25923 (Staphylococcus aureus, UniProt Q5HH40); test: as above; format: biochemical
# [7] = test system: Mtb-MenD; set-up: method as in PMID 32029475; settings: 0.6 µM Mtb-MenD; read-out: IC50 of DHNA, SEPHCHC activity; cited from earlier work
# [8] = molecular target: T1, Sau-MenDATCC 25923; test: Intrinsic fluorescence quenching upon DHNA titration; format: binding; settings: 1 µM enzyme
# Protocol: (§1) Intrinsic fluorescence quenching experiments were performed at 25°C with a Varian Cary Eclipse Fluorescence Spectrophotometer (Agilent Technologies) with slits set at 5 nm bandwidth. The excitation wavelength was 290 nm and emission spectra were recorded in the 300–400 nm range. […] For Sau-MenD samples in the presence of the reaction ligands, the enzyme was preincubated with 100 µM ThDP only or 100 µM ThDP and 300 µM oxoglutarate for 45 min at ambient temperature. DHNA (Sigma-Aldrich) was titrated from stock solutions that were prepared in the assay buffer and kept on ice. Following DHNA addition, cuvette contents were mixed immediately and fluorescence intensity was measured.
# (§2) The fluorescence intensities obtained at 340 nm were corrected for the dilution factor as well as for inner filter effects using equation (2.1),2.1 Fi corr=Fi dil ×10^Aex+Aem/2, where Fi corr is the corrected value of fluorescence intensity at the titration point, Fi dil is the dilution-corrected fluorescence intensity measured, and Aex and Aem are the absorbance of DHNA at excitation (290 nm) and emission wavelengths (340 nm).
# (§3) Corrected intensities were plotted against the DHNA concentration and, to determine the Kd value for DHNA, the resulting data were fitted in GraphPad Prism 9 using equation (2.2),2.2 F=Fmax−(X+Kd+M−(X+Kd+M)^2−4XM)/2M(Fmax−Fmin), where F is the measured fluorescence intensity of Sau-MenD, Fmax is the fluorescence intensity of Sau-MenD in the absence of DHNA, Fmin is the fluorescence intensity when Sau-MenD is saturated with DHNA, M is the micromolar concentration of enzyme used in the assay, X is the micromolar DHNA concentration and Kd is the dissociation constant.
# [9] = molecular target: Sau-MenDIS1 (Staphylococcus aureus, UniProt Q2FZL7); test: as above; format: binding
# Protocol: as §1, §2, §3
# [10] = test system: four different Sau strains; test: Growth assay with exogenous DHNA in LB medium (OD600); settings: 37°C, 24 h
# Protocol: (§4) Sau and Pseudomonas aeruginosa (electronic supplementary material, table S2) were grown for 18 ± 2 h in 5 ml of LB medium at 37°C and 180 r.p.m. Cultures were then diluted in fresh LB medium to contain 2.7 × 10^6 CFU ml^−1. A Nunc Microwell 96-well flat-bottom plate (Thermo Scientific) was seeded in triplicate (from three independent starter cultures) with 75 µl of each of the diluted cultures and 75 µl of 2× working solutions of DHNA, MK-4 or DHNA + MK-4 (prepared from the following stock solutions: 100 mM DHNA dissolved in dimethyl sulfoxide (DMSO), and 50 mM MK-4 (Sigma-Aldrich) dissolved in 100% ethanol). Plate wells contained a final concentration of 10^6 CFU well^−1 with 0, 50 or 100 µM DHNA for growth assays, or with 0 or 100 µM DHNA supplemented with 337 µM MK-4 for growth rescue assays. Plates were incubated at 37°C and 300 r.p.m. for 24 h. Growth was determined by measuring the OD600 of the cultures every 30 min during the incubation period. Data from biological replicates were averaged and subtracted from blank data (sterile medium with appropriate additives).
# [11] = test system: Pseudomonas aeruginosa; test: Growth assay with exogenous DHNA in LB medium (OD600), control bacterium; settings: DHNA concentrations up to 150 µM, 37°C, 24 h
# Protocol: as §4
# [12] = molecular target: Sau-MenDIS1 Lys309Ala mutant (Staphylococcus aureus, UniProt Q2FZL7, K309A); test: UV spectroscopy assay of isochorismate consumption, DHNA inhibition
# [13] = test system: Sau strains; test: MK-4 growth rescue assay (OD600); format: cell-based, Staphylococcus aureus; settings: 24 h
# [14] = molecular target: the molecule itself; test: native MS; protein exchanged from SEC buffer into 2 M ammonium acetate pH 7.4; Sau-MenDIS1 4.7 mg/ml, Sau-MenD ATCC 25923 6.3 mg/ml; gold-coated glass capillaries, Synapt XS, soft ionization
# [15] = four-parameter logistic Hill fit of DHNA inhibition
# [16] = read-out: activity reduction in the presence of 12.5 µM DHNA
molecule,measurement,setting,value
"O=C(O)c1cc(O)c2ccccc2c1O [DHNA, 1,4-dihydroxy-2-naphthoic acid]",IC50,"[1]; 0.4 µM enzyme, 100 µM ThDP, 300 µM oxoglutarate, 10 µM isochorismate, 30 min preincubation 37°C",3.7 µM
same,inhibition at 12.5 µM,"[1]; 12.5 µM DHNA, 0.4 µM enzyme, 100 µM ThDP, 300 µM oxoglutarate, 10 µM isochorismate, read-out: activity reduction in the presence of 12.5 µM DHNA",82%
same,Hill slope,[1]; [15],−1.0
same,IC50,[2],> 10 µM
same,Hill slope,"[2]; four-parameter Hill fit, complete CI not determinable, best-fit value to be interpreted with caution",−2.3
same,inhibition at 12.5 µM,[2]; [16],21%
same,effect on susceptibility of Sau to cannabidiol,[3],increased the susceptibility
same,IC50,[4],> 10 µM
same,Hill slope,[5],−1.2
same,activity reduction in the presence of 12.5 µM DHNA,"[6]; 12.5 µM DHNA, 0.4 µM enzyme, 100 µM ThDP, 300 µM oxoglutarate, 10 µM isochorismate",87%
same,Hill slope,[6]; [15],−0.99
same,IC50,"[6]; read-out: IC50 of DHNA, 0.4 µM enzyme, 100 µM ThDP, 300 µM oxoglutarate, 10 µM isochorismate",2.3 µM
same,IC50,[7],0.053 µM
same,Kd,[8]; + 100 μM ThDP/300 μM oxoglutarate,67 µM
same,Kd,"[8]; apo-enzyme, 25°C",85 µM
same,Kd,"[9]; + 100 μM ThDP, 1 µM enzyme, read-out: Kd for DHNA",98 µM
same,Kd,"[9]; + 100 μM ThDP/300 μM oxoglutarate, 1 µM enzyme, read-out: Kd for DHNA",58 µM
same,Kd,"[9]; apo-enzyme, 1 µM enzyme, 25°C, read-out: Kd for DHNA",110 µM
same,Kd,"[9]; apo-enzyme, ThDP-bound and ThDP- and oxoglutarate-bound forms, read-out: Kd values for DHNA (span over enzyme forms)",58 to 110 µM
same,effect on growth,"[10]; 50 µM DHNA, all four Sau strains",clearly impaired the growth
same,effect on growth,[10]; 100 µM DHNA,growth impact was more severe
same,effect on growth,"[10]; 150 µM DHNA, all four Sau",completely inhibited
same,effect on growth,[11],unaffected
same,IC50,[12],4.6 µM
same,Hill slope,[12]; [15],−1.0
same,inhibition at 12.5 µM,[12]; [16],80%
CC(C)=CCC/C(C)=C/CC/C(C)=C/CC/C(C)=C/CC1=C(C)C(=O)c2ccccc2C1=O [MK-4],effect on susceptibility of Sau to cannabidiol,[3],prevented cannabidiol-mediated growth impairment
same,"effect on growth, MK-4 alone","[13]; 337 µM MK-4 (150 µg ml−1), absence of DHNA",slightly impacted the growth
same,growth rescue of DHNA-treated Sau,"[13]; 337 µM MK-4 added to medium containing 100 µM DHNA, compared with 100 µM DHNA only",significant growth improvement
"Staphylococcus aureus IS1 MenD (SEPHCHC synthase), wild type (enzyme, UniProt Q2FZL7 1-557, looked up, MenD (SEPHCHC synthase) of Staphylococcus aureus IS1; the structure numbers residues up to 557; Cloned in a modified pET30a by NcoI and HindIII; also called Sau-MenDIS1; Sau-MenD IS1; source: E. coli BL21 (DE3), purified (IMAC, TEV cleavage, subtractive IMAC, SEC); not shown: His6, N-terminal, cleaved) MGNHKAALTKQVFTFASELYAYGVREVVISPGSRSTPLALAFEAHPNIKTWIHPDERSAAFFAVGLIKGSERPVAILCTSGTAAANYTPAIAESQISRIPLIVLTSDRPHELRSVGAPQAINQVNMFNNYVSYEFDMPIADDSKETIDAIYYQMQIASQYLYGPHKGPIHFNLPFRDPLTPDLNATELLTSEMKILPHYQKSIDASALRHILNKKKGLIIVGDMQHQEVDQILTYSTIYDLPILADPLSHLRKFDHPNVICTYDLLFRSGLDLNVDFVIRVGKPVISKKLNQWLKKTDAFQILVQNNDKIDVFPIAPDISYEISANDFFRSLMEDTTVNRVSWLEKWQCLEKKGRKEIKCYLEQATDESAFVGELIKKTSEKDALFISNSMPIRDVDNLLLNKNIDVYANRGANGIDGIVSTALGMAVHKRITLLIGDLSFYHDMNGLLMSKLNNIQMNIVLLNNDGGGIFSYLPQKESATDYFERLFGTPTGLDFEYTAKLYQFDFKRFNSVSEFKNATLLSETSTIYELITNREDNFKQHQILYQKLSEMIHDTL",stoichiometry N,[14],4
Staphylococcus aureus ATCC 25923 MenD (SEPHCHC synthase) (enzyme) MGNHKAALTKQVFTFASELYAYGVREVVISPGSRSTPLALAFEAHPNIKTWIHPDERSAAFFAVGLIKGSERPVAILCTSGTAAANYTPAIAESQISRIPLIVLTSDRPHELRSVGAPQAINQVNMFNNYVSYEFDMPIADDSKETIDAIYYQMQIASQYLYGPHKGPIHFNLPFRDPLTPDLNATELLTSEMKILPHYQKSIDASALRHILNKKKGLIIVGDMQHQEVDQILTYSTIYDLPILADPLSHLRKFDHPNVICTYDLLFRSGLDLKVDFVIRVGKPVISKKLNQWLKKTDAFQILVQNNDKIDVFPIAPDISYEISANDFFRSLMEDTTVNRVSWLEKWQRIEKKGRKEIKCYLEQATDESAFVGELIKKTSEKDALFISNSMPIRDVDNLLLNKNIDVYANRGANGIDGIVSTALGMAVHKRVTLLIGDLSFYHDMNGLLMSKLNNIQMNIVLLNNDGGGIFSYLPQKESATDYFERLFGTPTGLDFEYTAKLYQFDFKRFNNVSEFKNATLLSETSTIYELITNREDNFKQHQILYQKLSEMIHDTL,stoichiometry N,[14],4
